{"source": "patent US20260284009A1", "about": "“COMPOUNDS FOR NOS-RELATED CANCERS AND METHODS OF USE” (YISSUM RESEARCH DEVELOPMENT COMPANY OF THE HEBREW …, priority 2023, published 2026)", "key": {"SH-SY5Y cells [1]": {"tested_on": "SH-SY5Y cells", "test": "Western blots of 3-Ntyr, mTOR pathway components and Syp in SH-SY5Y cell lysate", "type": "cell-based, human", "conditions": "western blot normalized for β-actin, 100 μM 7-NI or 20 nM siRNA", "method": "In FIGS. 4A-4D, for quantitative analysis data, all individual data series are presented as biological replicates (n=4) for all groups. Data were normalized for β-actin and are presented as mean±SEM. Statistical significance was determined using a One-way ANOVA followed by Fisher's LSD multiple comparison post hoc test. *P<0.05 and **P<0.01.\nFIG. 4A: Representative western blots of 3-Ntyr prepared from cell lysate of SH-SY5Y cells following administration of the control (“SH-SY5Y”—Series 1), 100 μM 7-NI (“SH-SY5Y +7-NI”—Series 2), or 20 nM siRNA (SEQ ID NO: 4) (“SH-SY5Y+si-nNOS”—Series 3).\nFIG. 4B: Quantitative analysis of 3-Ntyr levels for the experiments of FIG. 4A.\nFIG. 4C: Representative western blots of mTOR, p-mTOR, TSC-2, AKT, pAKT, RPS6, pRPS6, and Syp prepared from the cell lysate of SH-SY5Y cells following administration of the control (“SH-SY5Y”—Series 1), 100 μM 7-NI (“SH-SY5Y+7-NI”—Series 2), or 20 nM siRNA (SEQ ID NO: 4) (“SH-SY5Y+si-nNOS”—Series 3).\nFIG. 4D: Quantitative analysis of mTOR, p-mTOR, TSC-2, AKT, pAKT, RPS6, pRPS6, and Syp levels for the experiments of FIG. 4C."}, "SH-SY5Y cells [2]": {"tested_on": "SH-SY5Y cells", "test": "Clonogenic survival assay in SH-SY5Y cells", "type": "cell-based, human", "conditions": "7-NI, 14 days", "method": "Cells were seeded into 6-well plates at concentrations of 500/well or 1000/well in triplicates. After 24 hours, 7-NI was added, or cells were transiently transfected with siRNA-nNOS, as described above (SEQ ID NO: 4), before changing to serum-containing medium. Cells were incubated for 14 days to form visible colonies. Colonies were stained with crystal violet, washed with PBS, air-dried, and imaged. The colonies were visualized using ImageJ software. Cell colonies of greater than 50 cells were identified and counted."}, "SH-SY5Y cells [3]": {"tested_on": "SH-SY5Y cells", "test": "NADPH-diaphorase activity assay (NOS activity) in SH-SY5Y cell lysates", "type": "cell-based, human", "conditions": "100 μM 7-NI, 24 hr", "method": "Human neuroblastoma (“NB”) SH-SY5Y cells were obtained from the American Type Culture Collection (ATCC) and maintained in Dulbecco's modified Eagle's medium (DMEM) and Ham's F-12 (1:1) supplemented with 10% fetal bovine serum, 2 mM L-glutamine, and 100 U/ml penicillin-G/[…] streptomycin in the humidified atmosphere (37° C., 5% CO2). Cells were plated onto 25 cm^2 and 75 cm^2 at a density of […] respectively for Western blotting (WB) and 1×10^5 for immunofluorescence. The SH-SY5Y cells were treated with 100 μM 7-nitroindazole (7-NI) for 24 hr. This concentration was confirmed in the dose-response experiment (FIG. 1) using an MTT viability assay.\nThe NADPH-diaphorase activity assay was used to determine the NOS activity based on the NADPH-dependent reduction of nitro-blue tetrazolium salt (NBT) to visible formazan. SH-SYSY cells grown in six-well culture plates were lysed in 50 mM Tris-HCl buffer (pH 7.4), containing 0.1% Triton X-100, 2 mM EDTA, and a protease inhibitor cocktail (Sigma, St. Louis, MO). […] After a 15 min incubation period at 37° C., the production of formazan was measured spectrophotometrically at 585 nm. The data were expressed as absorbance units and normalized for the protein content of each sample. Protein concentration was measured by the bicinchoninic acid (BCA) protein assay using BSA as a standard. […]"}, "SH-SY5Y cells [4]": {"tested_on": "SH-SY5Y cells", "test": "NADPH-diaphorase activity in cell lysates of SH-SY5Y cells", "type": "cell-based, human", "conditions": "100 μM 7-NI or 20 nM siRNA (SEQ ID NO: 4), absorbance at 585 nm normalized for total protein, n=3", "method": "In FIGS. 2A-2C, for quantitative analysis absorbance at 585 nm was normalized for total protein. Data are expressed as the mean±SEM. Statistical significance was determined using a One-way ANOVA followed by Fisher's LSD multiple comparison post hoc test. *P<0.05 and **P<0.01.\nFIG. 2A: Quantitative analysis of NADPH-diaphorase activity in cell lysates of SH-SY5Y cells following the administration of the control (“SH-SY5Y”) (n=3), 0.1% DMSO (“SH-SY5Y+NC”) (n=3), 100 μM 7-NI (“SH-SY5Y+7-NI”) (n=3), or 20 nM siRNA (SEQ ID NO: 4) (“SH-SY5Y+si-nNOS”) (n=3).\nFIG. 2C: Representative images of cultured SH-SY5Y cells stained for NADPH-diaphorase activity."}, "U87-MG-xenografted mice": {"tested_on": "U87-MG-xenografted mice", "test": "Tumor growth in U87-MG-xenografted mice", "type": "in vivo", "conditions": "10 mg/kg, compared to the vehicle (FIGS. 16-17)", "method": "In a particular example, in vitro and in vivo experiments were performed using U87-MG cells and U87-MG-xenografted mice, respectively, as a glioblastoma model."}}}
{"smiles": "O=[N+]([O-])c1cccc2cn[nH]c12", "note": "[7-NI, 7-nitroindazole]", "values": [{"measurement": "expression levels of 3-nitrotyrosine (3-Ntyr)", "setting": "SH-SY5Y cells [1]", "value": "significant decrease"}, {"measurement": "expression levels of AKT", "setting": "SH-SY5Y cells [1]", "value": "significant decrease"}, {"measurement": "expression levels of RPS6", "setting": "SH-SY5Y cells [1]", "value": "significant decrease"}, {"measurement": "expression levels of TSC-2", "setting": "SH-SY5Y cells [1]", "value": "significant decrease"}, {"measurement": "expression levels of mTOR", "setting": "SH-SY5Y cells [1]", "value": "significant decrease"}, {"measurement": "expression levels of p-mTOR", "setting": "SH-SY5Y cells [1]", "value": "significant decrease"}, {"measurement": "expression levels of pAKT", "setting": "SH-SY5Y cells [1]", "value": "significant decrease"}, {"measurement": "expression levels of pRPS6", "setting": "SH-SY5Y cells [1]", "value": "significant decrease"}, {"measurement": "expression levels of synaptophysin (Syp)", "setting": "SH-SY5Y cells [1]", "value": "significant decrease"}, {"measurement": "number of colonies", "setting": "SH-SY5Y cells [2]", "value": "decrease"}, {"measurement": "NADPH diaphorase activity (NOS activity)", "setting": "SH-SY5Y cells [3]", "value": "significantly inhibited"}, {"measurement": "NADPH-diaphorase activity", "setting": "SH-SY5Y cells [4]", "value": "significant decrease"}]}
{"smiles": "CC(=N)NCCCC[C@H](N)C(=O)O", "note": "[L-NIL, N^6-(1-iminoethyl)-L-lysine]", "values": [{"measurement": "average tumor size", "setting": "U87-MG-xenografted mice", "value": "significantly smaller"}]}
